Measured values: patent US20120015938A1, “1,4-BENZODIAZEPIN-2-ON DERIVATIVES” (MSD K.K., priority 2009, published 2012)

Molecular target: T1, Human DGAT1 (Homo sapiens, UniProt O75907)
T1 construct: made in house; host or cells: Pichia pastoris (printed 'Pichia pastris'), vector pPICZA; membrane fraction
T1 sequence (O75907 1-488): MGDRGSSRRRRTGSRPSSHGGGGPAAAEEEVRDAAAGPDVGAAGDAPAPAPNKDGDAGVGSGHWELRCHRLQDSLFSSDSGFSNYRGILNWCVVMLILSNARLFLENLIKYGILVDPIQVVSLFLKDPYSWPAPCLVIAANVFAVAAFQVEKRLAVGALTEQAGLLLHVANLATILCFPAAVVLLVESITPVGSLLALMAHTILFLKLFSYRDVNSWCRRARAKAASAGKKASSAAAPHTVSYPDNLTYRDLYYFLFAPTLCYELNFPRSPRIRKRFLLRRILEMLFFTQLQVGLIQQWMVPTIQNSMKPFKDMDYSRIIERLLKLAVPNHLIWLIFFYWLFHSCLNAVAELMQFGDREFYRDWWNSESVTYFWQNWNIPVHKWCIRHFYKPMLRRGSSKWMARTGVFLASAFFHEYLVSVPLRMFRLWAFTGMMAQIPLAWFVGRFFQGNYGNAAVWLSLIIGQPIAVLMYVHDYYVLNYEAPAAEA
Experiment: DGAT1 Inhibitory Activity Test
Format: biochemical
Conditions: DGAT1-expressed yeast membrane fraction, [14C]-oleoyl-CoA, room temperature 30 minutes
Procedure: Cloning of Human DGAT1 Gene and Expression in Yeast
Human DGAT1 genes were amplified by PCR using primers described below from human cDNA library (Clontech).
The amplified human DGAT1 genes were introduced into a yeast expression vector pPICZA (Invitrogen). The resultant expression plasmid was introduced into an yeast (Pichia pastris) by electroporation to produce a recombinant yeast. The recombination yeast was cultured in the presence of 0.5% methanol for 72 hours, and the cells were crushed using glass beads in 10 mM Tris pH 7.5, 250 mM sucrose and 1 mM EDTA, followed by adjusting the membrane fraction by centrifugation to use the adjusted membrane fraction as an enzyme source.
To the reaction liquid having the following composition: 100 mM Tris pH 7.5, 100 mM MgCl2, 100 mM sucrose, 40 μM dioelin, 15 μM [^14C]-oleoyl-CoA, 0.25 μg of test substance, DGAT1-expressed yeast membrane fraction, was added, and the mixture having a volume of 100 μl was incubated at room temperature for 30 minutes. To the reaction liquid, 100 μl of 2-propanol/heptan/H2O (80:20:2) was added, the mixture was stirred well, followed by adding 200 μl of heptane and further stirring the mixture. After centrifugation, the heptane layer was collected, ethanol/0.1N NaOH/H2O (50:5:45) was added, the mixture was thus stirred, followed by re-centrifuging the mixture and collecting the heptane layer. After exsiccation of the resultant heptane layer, 100 μl of Microscint 0 (PerkinElmer) was added, and the radioactivity was measured with a liquid scintillation counter. The inhibitory activity was calculated from the following formula:
Inhibition rate=100−(radioactivity in case of addition of test compound−background)/(radioactivity in case of addition of no test compound−background)×100 wherein the background means the radioactivity in case of addition of no membrane fraction.

| Compound | IC50 [nM] |
| --- | --- |
| CN1C(=O)C(NC(=O)C(C)(C)NC(=O)c2ccc(F)cc2)N=C(Cc2ccc(OC(F)(F)F)cc2)c2cc(F)ccc21 (single isomer, unassigned) [Example 1 Enantiomer A, 4-fluoro-N-[2-({7-fluoro-1-methyl-2-oxo-5-[4-(trifluoromethoxy)benzyl]-2,3-dihydro-1H-1,4-benzodiazepin-3-yl}amino)-1,1-dimethyl-2-oxoethyl]benzamide] | 483 |
| CN1C(=O)C(NC(=O)C(C)(C)NC(=O)c2ccc(F)cc2)N=C(Cc2ccc(OC(F)(F)F)cc2)c2cc(F)ccc21 (single isomer, unassigned) [Example 1 Enantiomer B, 4-fluoro-N-[2-({7-fluoro-1-methyl-2-oxo-5-[4-(trifluoromethoxy)benzyl]-2,3-dihydro-1H-1,4-benzodiazepin-3-yl}amino)-1,1-dimethyl-2-oxoethyl]benzamide] | 133 |
| CN1C(=O)C(NC(=O)C(C)(C)NC(=O)c2ccccc2)N=C(Cc2ccc(OC(F)(F)F)cc2)c2cc(F)ccc21 (single isomer, unassigned) [Example 2 Enantiomer A, N-[2-({7-fluoro-1-methyl-2-oxo-5-[4-(trifluoromethoxy)benzyl]-2,3-dihydro-1H-1,4-benzodiazepin 3-yl}amino)-1,1-dimethyl-2-oxoethyl]benzamide] | 569 |
| CN1C(=O)C(NC(=O)C(C)(C)NC(=O)c2ccccc2)N=C(Cc2ccc(OC(F)(F)F)cc2)c2cc(F)ccc21 (single isomer, unassigned) [Example 2 Enantiomer B, N-[2-({7-fluoro-1-methyl-2-oxo-5-[4-(trifluoromethoxy)benzyl]-2,3-dihydro-1H-1,4-benzodiazepin 3-yl}amino)-1,1-dimethyl-2-oxoethyl]benzamide] | 164 |
| CN1C(=O)C(NC(=O)C(C)(C)NC(=O)c2ccc(F)cc2)N=C(Cc2ccc(OC(F)(F)F)cc2)c2ccccc21 (single isomer, unassigned) [Example 3 Enantiomer A, N-[1,1-dimethyl-2-({1-methyl-2-oxo-5-[4-(trifluoromethoxy)benzyl]-2,3-dihydro-1H-1,4-benzodiazepin-3-yl}amino)-2-oxoethyl]-4-fluorobenzamide] | 181 |
| CN1C(=O)C(NC(=O)C(C)(C)NC(=O)c2ccc(F)cc2)N=C(Cc2ccc(OC(F)(F)F)cc2)c2ccccc21 (single isomer, unassigned) [Example 3 Enantiomer B, N-[1,1-dimethyl-2-({1-methyl-2-oxo-5-[4-(trifluoromethoxy)benzyl]-2,3-dihydro-1H-1,4-benzodiazepin-3-yl}amino)-2-oxoethyl]-4-fluorobenzamide] | 125 |
| CN1C(=O)C(NC(=O)C(C)(C)NC(=O)c2ccccc2)N=C(Cc2ccc(OC(F)(F)F)cc2)c2ccccc21 (single isomer, unassigned) [Example 4 Enantiomer A, N-[1,1-dimethyl-2-({1-methyl-2-oxo-5-[4-(trifluoromethoxy)benzyl]-2,3-dihydro-1H-1,4-benzodiazepin-3-yl}amino)-2-oxoethyl]benzamide] | 308 |
| CN1C(=O)C(NC(=O)C(C)(C)NC(=O)c2ccccc2)N=C(Cc2ccc(OC(F)(F)F)cc2)c2ccccc21 (single isomer, unassigned) [Example 4 Enantiomer B, N-[1,1-dimethyl-2-({1-methyl-2-oxo-5-[4-(trifluoromethoxy)benzyl]-2,3-dihydro-1H-1,4-benzodiazepin-3-yl}amino)-2-oxoethyl]benzamide] | 127 |
